Source: patent publication US20150305367A1, “FROZEN CONFECTION” (CONOPCO, INC., D/B/A UNILEVER, priority 2012, published 2015)

Target: T1, recombinant human MAO-B (Homo sapiens, UniProt P27338)
T1 construct: purchased Sigma-Aldrich; host or cells: baculovirus-infected insect cells (microsomes)
T1 sequence (P27338 1-520): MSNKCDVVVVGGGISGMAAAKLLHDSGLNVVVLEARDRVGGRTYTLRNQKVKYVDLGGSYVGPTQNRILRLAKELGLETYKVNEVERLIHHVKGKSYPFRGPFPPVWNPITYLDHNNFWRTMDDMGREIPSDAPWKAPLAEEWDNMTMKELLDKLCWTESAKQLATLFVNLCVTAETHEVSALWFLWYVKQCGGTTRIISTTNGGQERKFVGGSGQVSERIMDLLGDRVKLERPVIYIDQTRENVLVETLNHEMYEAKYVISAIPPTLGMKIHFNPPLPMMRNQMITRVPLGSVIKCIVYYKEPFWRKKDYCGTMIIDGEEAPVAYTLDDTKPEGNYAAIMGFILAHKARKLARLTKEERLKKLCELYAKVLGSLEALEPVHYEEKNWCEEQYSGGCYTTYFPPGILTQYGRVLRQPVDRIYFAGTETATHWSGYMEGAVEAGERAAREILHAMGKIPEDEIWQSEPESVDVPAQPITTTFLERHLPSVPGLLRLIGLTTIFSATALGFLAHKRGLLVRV
Assay: MAO-Glo chemiluminescent MAO-B inhibition assay;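 note: MAO-B from microsomes of baculovirus-infected insect cells, luciferin-based luminescence read-out, inhibition relative to enzyme activity with DMSO vehicle alone and no inhibitor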
Assay type: biochemical
Conditions: overall verdict over 1, 10 and 100 μM

| SMILES | MAO-B inhibition (Yes/No) |
| --- | --- |
| COc1ccccc1O [2-Methoxyphenol] | No |
| O=Cc1ccc(O)c(O)c1 [3,4-Dihydroxybenzaldehyde] | No |
| CC(=O)C(C)O (stereo not drawn) [3-Hydroxy-2-butanone] | No |
| CC1=C(O)C(=O)C(C)O1 (stereo not drawn) [4-Hydroxy-2,5-dimethyl-3(2H)-furanone] | No |
| O=Cc1ccc(O)cc1 [4-Hydroxybenzaldehyde] | Yes |
| O=C(O)c1ccc(O)cc1 [4-Hydroxybenzoic acid] | No |
| OCc1ccc(O)cc1 [4-Hydroxybenzyl alcohol] | No |
| COc1ccc(C=O)cc1 [4-Methoxybenzaldehyde] | Yes |
| O=C(/C=C/c1ccccc1)OCc1ccccc1 [Benzyl cinnamate] | Yes |
| CCOc1cc(C=O)ccc1O [Ethyl vanillin] | No |
| C=CCc1ccc(O)c(OC)c1 [Eugenol] | No |
| COc1cc(/C=C/C(=O)O)ccc1O [Ferulic acid] | No |
| O=Cc1ccc2c(c1)OCO2 [Piperonal] | Yes |
| COc1cc(C(=O)O)ccc1O [Vanillic acid] | No |
| COc1cc(CO)ccc1O [Vanillyl Alcohol] | No |
| COc1ccc(C=O)cc1OC [Veratraldehyde] | No |

Same assay, conditions: test concentration 1 μM; mean ± standard deviation, triplicate; 90 min incubation

| SMILES | inhibition at 1 µM [%] |
| --- | --- |
| COc1ccccc1O [2-Methoxyphenol] | 0 |
| O=Cc1ccc(O)c(O)c1 [3,4-Dihydroxybenzaldehyde] | 0 |
| CC(=O)C(C)O (stereo not drawn) [3-Hydroxy-2-butanone] | 11 ± 4.2 |
| CC1=C(O)C(=O)C(C)O1 (stereo not drawn) [4-Hydroxy-2,5-dimethyl-3(2H)-furanone] | 0 |
| O=Cc1ccc(O)cc1 [4-Hydroxybenzaldehyde] | 10 ± 3.2 |
| O=C(O)c1ccc(O)cc1 [4-Hydroxybenzoic acid] | 13 ± 3.2 |
| OCc1ccc(O)cc1 [4-Hydroxybenzyl alcohol] | 1 ± 7.9 |
| COc1ccc(C=O)cc1 [4-Methoxybenzaldehyde] | 0 |
| O=C(/C=C/c1ccccc1)OCc1ccccc1 [Benzyl cinnamate] | 10 ± 6.4 |
| O=C(O)/C=C/c1ccc(O)cc1 [Coumaric acid] | 11 ± 4.2 |
| CCOc1cc(C=O)ccc1O [Ethyl vanillin] | 0 |
| C=CCc1ccc(O)c(OC)c1 [Eugenol] | 0 |
| COc1cc(/C=C/C(=O)O)ccc1O [Ferulic acid] | 4 ± 1.2 |
| O=Cc1ccc2c(c1)OCO2 [Piperonal] | 10 ± 2.9 |
| COc1cc(C(=O)O)ccc1O [Vanillic acid] | 6 ± 4.2 |
| COc1cc(CO)ccc1O [Vanillyl Alcohol] | 2 ± 4 |
| COc1ccc(C=O)cc1OC [Veratraldehyde] | 1 ± 1.5 |

Same assay, conditions: test concentration 10 μM; mean ± standard deviation, triplicate; 90 min incubation

| SMILES | inhibition at 10 µM [%] |
| --- | --- |
| COc1ccccc1O [2-Methoxyphenol] | 0 |
| O=Cc1ccc(O)c(O)c1 [3,4-Dihydroxybenzaldehyde] | 4 ± 5.1 |
| CC(=O)C(C)O (stereo not drawn) [3-Hydroxy-2-butanone] | 6 ± 5.2 |
| CC1=C(O)C(=O)C(C)O1 (stereo not drawn) [4-Hydroxy-2,5-dimethyl-3(2H)-furanone] | 9 ± 3.3 |
| O=Cc1ccc(O)cc1 [4-Hydroxybenzaldehyde] | 6 ± 4.7 |
| O=C(O)c1ccc(O)cc1 [4-Hydroxybenzoic acid] | 9 ± 5.2 |
| OCc1ccc(O)cc1 [4-Hydroxybenzyl alcohol] | 0 |
| COc1ccc(C=O)cc1 [4-Methoxybenzaldehyde] | 11 ± 3.8 |
| O=C(/C=C/c1ccccc1)OCc1ccccc1 [Benzyl cinnamate] | 63 ± 3.1 |
| O=C(O)/C=C/c1ccc(O)cc1 [Coumaric acid] | 16 ± 2.8 |
| CCOc1cc(C=O)ccc1O [Ethyl vanillin] | 0 |
| C=CCc1ccc(O)c(OC)c1 [Eugenol] | 4 ± 4.6 |
| COc1cc(/C=C/C(=O)O)ccc1O [Ferulic acid] | 9 ± 1.7 |
| O=Cc1ccc2c(c1)OCO2 [Piperonal] | 53 ± 4 |
| COc1cc(C(=O)O)ccc1O [Vanillic acid] | 5 ± 7.3 |
| COc1cc(CO)ccc1O [Vanillyl Alcohol] | 9 ± 3 |
| COc1ccc(C=O)cc1OC [Veratraldehyde] | 2 ± 6.6 |

Same assay, conditions: test concentration 100 μM; mean ± standard deviation, triplicate; 90 min incubation

| SMILES | inhibition at 100 µM [%] |
| --- | --- |
| COc1ccccc1O [2-Methoxyphenol] | 0 |
| O=Cc1ccc(O)c(O)c1 [3,4-Dihydroxybenzaldehyde] | 9 ± 3.6 |
| CC(=O)C(C)O (stereo not drawn) [3-Hydroxy-2-butanone] | 7 ± 3.4 |
| CC1=C(O)C(=O)C(C)O1 (stereo not drawn) [4-Hydroxy-2,5-dimethyl-3(2H)-furanone] | 7 ± 11.7 |
| O=Cc1ccc(O)cc1 [4-Hydroxybenzaldehyde] | 27 ± 5.1 |
| O=C(O)c1ccc(O)cc1 [4-Hydroxybenzoic acid] | 11 ± 5.7 |
| OCc1ccc(O)cc1 [4-Hydroxybenzyl alcohol] | 6 ± 8.1 |
| COc1ccc(C=O)cc1 [4-Methoxybenzaldehyde] | 75 ± 1.9 |
| O=C(/C=C/c1ccccc1)OCc1ccccc1 [Benzyl cinnamate] | 100 |
| O=C(O)/C=C/c1ccc(O)cc1 [Coumaric acid] | 17 ± 7.3 |
| CCOc1cc(C=O)ccc1O [Ethyl vanillin] | 4 ± 5.3 |
| C=CCc1ccc(O)c(OC)c1 [Eugenol] | 0 |
| COc1cc(/C=C/C(=O)O)ccc1O [Ferulic acid] | 4 ± 7 |
| O=Cc1ccc2c(c1)OCO2 [Piperonal] | 100 |
| COc1cc(C(=O)O)ccc1O [Vanillic acid] | 11 ± 3.3 |
| COc1cc(C=O)ccc1O [Vanillin] | 19 ± 5.6 |
| COc1cc(CO)ccc1O [Vanillyl Alcohol] | 6 ± 5.1 |
| COc1ccc(C=O)cc1OC [Veratraldehyde] | 0 |

System: not given
Assay: not given
Conditions: measured in vivo in rat brain; cited from earlier work

| SMILES | endogenous pool half-life |
| --- | --- |
| NCCc1ccccc1 [phenylethylamine, Phenylethylamine] | approximately 30 s |
